Laboratory results reported in patent publication US11434242B2, “Dopamine-b-hydroxylase inhibitors” (BIAL-PORTELA & Cª, S.A., priority 2017, dated 2022).

Target: T1, Dopamine beta hydroxylase (Homo sapiens, UniProt P09172)
T1 construct: 125 μl of plasma; tissue Instituto Português do Sangue Transplantação; host or cells: human plasma from healthy donors
T1 sequence (P09172 40-617 limits assumed): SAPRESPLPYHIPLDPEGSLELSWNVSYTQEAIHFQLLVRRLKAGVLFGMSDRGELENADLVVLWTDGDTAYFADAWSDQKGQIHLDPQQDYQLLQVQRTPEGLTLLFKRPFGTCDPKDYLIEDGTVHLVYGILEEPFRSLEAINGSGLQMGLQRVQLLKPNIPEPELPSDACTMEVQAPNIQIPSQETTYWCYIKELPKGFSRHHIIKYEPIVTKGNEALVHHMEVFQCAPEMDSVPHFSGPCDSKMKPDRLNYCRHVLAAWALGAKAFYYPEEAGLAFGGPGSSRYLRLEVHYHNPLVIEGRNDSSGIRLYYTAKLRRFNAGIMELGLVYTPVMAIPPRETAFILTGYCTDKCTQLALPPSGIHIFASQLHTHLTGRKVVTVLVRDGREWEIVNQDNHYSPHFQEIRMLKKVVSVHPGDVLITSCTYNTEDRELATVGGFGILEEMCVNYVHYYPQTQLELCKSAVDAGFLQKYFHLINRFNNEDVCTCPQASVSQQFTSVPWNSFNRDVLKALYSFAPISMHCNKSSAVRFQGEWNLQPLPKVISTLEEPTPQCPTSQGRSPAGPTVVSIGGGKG
Experiment: Dopamine beta hydroxylase activity in human plasma
Type: biochemical
Settings: for Plasma (0.01 μM), activity in % of control: inhibitor 0.01 μM; for Plasma (0.1 μM), activity in % of control: inhibitor 0.1 μM
Outline: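 Octopamine production from tyramine over 45 min at 37° C, measured photometrically at 330 nm after SCX extraction and periodate oxidation against an octopamine standard curve, indicates plasma DβH activity. Compounds tested at final 10, 100 and 1000 nM in human plasma, pH 5.0 cofactor buffer, 10 min preincubation; results as % of control.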

Structure (SMILES)	Plasma (0.01 μM), activity in % of control	Plasma (0.1 μM), activity in % of control	Plasma (1 μM), activity in % of control (inhibitor 1 μM)
CN(C(=O)Cc1[nH]c(=S)n2c1C[C@H](c1c(F)ccc(F)c1F)C2)C1COC1 [Example 420, (R)—N-methyl-N-(oxetan-3-yl)-2-(3-thioxo-6-(2,3,6-trifluorophenyl)-2,5,6,7-tetrahydro-3H-pyrrolo[1,2-c]imidazol-1-yl)acetamide]	87.8 % of control	48.5 % of control	–
CN(C(=O)Cc1c2n(c(=S)n1C)C[C@@]1(c3c(F)ccc(Cl)c3F)C[C@@H]21)C1CCOC1 (stereo partly drawn) [Example 442, 2-((5aS,6aR)-5a-(3-chloro-2,6-difluorophenyl)-2-methyl-3-thioxo-2,3,5,5a,6,6a-hexahydrocyclopropa[3,4]pyrrolo[1,2-c]imidazol-1-yl)-N-methyl-N-(tetrahydrofuran-3-yl)acetamide]	43.6 % of control	10.0 % of control	–
Cn1c(CCc2cccnc2)c2n(c1=S)C[C@@H](c1c(F)c(F)cc(F)c1F)C2 [Example 259, (R)-2-methyl-1-(2-(pyridin-3-yl)ethyl)-6-(2,3,5,6-tetrafluorophenyl)-6,7-dihydro-2H-pyrrolo[1,2-c]imidazole-3(5H)-thione]	90.8 % of control	76.1 % of control	–
COC[C@@H]1CCCN1C(=O)Cc1c2n(c(=S)n1C)C[C@@H](c1c(F)ccc(F)c1F)C2 [Example 247, 1-((S)-2-(methoxymethyl)pyrrolidin-1-yl)-2-((R)-2-methyl-3-thioxo-6-(2,3,6-trifluorophenyl)-2,5,6,7-tetrahydro-3H-pyrrolo[1,2-c]imidazol-1-yl)ethan-1-one]	81.7 % of control	35.9 % of control	–
CN1C[C@@H](NC(=O)Cc2c3n(c(=S)n2C)C[C@@H](c2c(F)ccc(F)c2F)C3)CC1=O [Example 389, 2-((R)-2-methyl-3-thioxo-6-(2,3,6-trifluorophenyl)-2,5,6,7-tetrahydro-3H-pyrrolo[1,2-c]imidazol-1-yl)-N—((S)-1-methyl-5-oxopyrrolidin-3-yl)acetamide]	75.2 % of control	33.1 % of control	–
CS(=O)(=O)NC(=O)Cc1[nH]c(=S)n2c1C[C@@H](c1c(F)ccc(Br)c1F)C2 [Example 20, (S)-2-(6-(3-bromo-2,6-difluorophenyl)-3-thioxo-2,5,6,7-tetrahydro-3H-pyrrolo[1,2-c]imidazol-1-yl)-N-(methylsulfonyl)acetamide]	–	31.0 % of control	2.6 % of control
Cn1c(CC(=O)N2CCCC2)c2n(c1=S)C[C@@]1(c3cc(Br)ccc3F)C[C@@H]21 [Example 310, 2-((5aS,6aR)-5a-(5-bromo-2-fluorophenyl)-2-methyl-3-thioxo-2,3,5,5a,6,6a-hexahydrocyclopropa[3,4]pyrrolo[1,2-c]imidazol-1-yl)-1-(pyrrolidin-1-yl)ethan-1-one]	65.9 % of control	22.3 % of control	–
O=C(Cc1[nH]c(=S)n2c1[C@@H]1C[C@]1(c1cc(Cl)ccc1F)C2)N1CCCCC1 [Example 158, 2-((5aS,6aR)-5a-(5-chloro-2-fluorophenyl)-3-thioxo-2,3,5,5a,6,6a-hexahydrocyclopropa[3,4]pyrrolo[1,2-c]imidazol-1-yl)-1-(piperidin-1-yl)ethan-1-one]	90.9 % of control	52.1 % of control	–
